# Where “and” joins values, the source holds several entries; their conditions need not be identical. Identical values can stand only once. Like-named read-outs stand apart in the source and are kept apart here.
# Experiments:
# [1] = test system: M. persicae (green peach aphid) population resistant to carbamates and synthetic pyrethroids; experiment: Leaf dip bioassay, green peach aphid, resistant population; assay type: in vivo, Myzus persicae; settings: 96 hours exposure; for LC50: Myzus persicae, foliar
# Method: (§1) Each colony was maintained separately on bok choi plants ([…]) within an exclusion cage in a constant temperature room at 24° C. with a photoperiod of 16:8 LD.
# (§2) Laboratory bioassays were used to determine the efficacy of flavesone against M. persicae following the leaf dip method described in Moores et al. (1994, Pesticide Biochemistry and Physiology, 49, 114-120). A pilot study was first conducted which confirmed that the leaf dip method was appropriate to elicit a clear dose response for Flavocide 500EW against M. persicae, and to determine the appropriate rate range and timing of mortality assessments (scored at 24, 48, 72 & 96 hours) (data not shown).
# (§3) Bioassays were then conducted to assess the efficacy of flavesone against a susceptible and resistant population of M. persicae, and to calculate LC values. The efficacy of a conventional insecticide, pirimicarb, was tested for comparison. Nine concentrations of flavesone ranging from 1×10^−3 to 10 times the proposed field rate (Table 15), and six concentrations of pirimicarb were serially diluted and tested, along with a water control, against the susceptible and resistant aphid populations. Leaf discs (25 mm diameter) cut from bok choi leaves were submerged for 1 second in the insecticide solutions, or in the water control, and placed adaxial side up on 10 g/L agar in 35 mm petri dishes. Six replicate leaf discs were prepared per treatment. Once leaves were air-dry, eight M. persicae nymphs were transferred to each insecticide-dipped leaf disc using a fine-haired paintbrush.
# (§4) After aphid introduction, each petri dish was inverted onto a lid containing a 25 mm diameter filter paper to control humidity. All petri dishes were then placed into an incubator held at 18° C.±2° C. with a photoperiod of 16:8 LD cycle. At 48 & 96 hours, aphids were scored as alive (vibrant and moving freely), dead (not moving over a 5 second period), or incapacitated (inhibited movement).
# (§5) Dose-response curves were generated by plotting percentage mortality against log concentration. Mortality data was analysed using a logistic regression model with random effects. Logistic regression is suited for the analysis of binary response data (i.e. dead/alive) with the random effect component of the model controlling for the non-independence of mortality scores within replicates. […] Population differences were tested by comparing the change in model deviance with and without the population factor (different regression intercepts for each population). Differences in regression slopes between populations were tested by comparing the change in model deviance with and without the population×dose interaction term.
# [2] = test system: Rhyzopertha dominica susceptible strain QRD14; experiment: Grain protectant bioassay on treated wheat, susceptible lesser grain borer; assay type: in vivo; settings: for 14 day Adult Mortality No. dead/total / F1 Progeny count No. dead/total: Example 8, QQRD14, replicates A, B, C; for Progeny reduction (%): vs untreated control
# Excerpt: The experiment of Example 5 was repeated using a laboratory reared susceptible strain QQRD14 of R. dominica and different concentrations of flavesone to determine efficacy.
# [3] = test system: Sitophilus oryzae strain QSO393 (resistant to fenitrothion); experiment: Grain protectant bioassay on treated wheat, S. oryzae resistant; assay type: in vivo; settings: for Progeny reduction (%): vs untreated control
# [4] = test system: M. persicae (green peach aphid) insecticide-susceptible population; experiment: Leaf dip bioassay, green peach aphid, susceptible population; assay type: in vivo, Myzus persicae; settings: Susceptible population, 96 hours exposure
# Method: as §1, §2, §3, §4, §5
# [5] = test system: Rhyzopertha dominica strain QRD1440 (resistant to OP protectants and pyrethroids); experiment: Grain protectant bioassay on treated wheat, resistant lesser grain borer; settings: for Live adult progeny: mean ± SE; for Progeny reduction (%): vs untreated control
# [6] = test system: Oryzaephilus surinamensis strain QOS302 (resistant to fenitrothion & chlorpyrifos-methyl); experiment: Grain protectant bioassay on treated wheat, O. surinamensis resistant; assay type: in vivo; settings: for Progeny reduction (%): vs untreated control
# [7] = Example 6, QRD1440, 25 ppm on wheat, replicates A, B, C
# [8] = Example 6, QRD1440, 50 ppm on wheat, replicates A, B, C
# [9] = Example 6, QRD1440, 75 ppm on wheat, replicates A, B, C
# [10] = Example 7, QRD1440, 60 ppm on wheat, replicates A, B, C
# [11] = Rhyzopertha dominica, in Triticum aestivum, 336 h, read-out: Adult mortality (%)
structure (smiles),measurement,setting,value
"CC(C)C(=O)C1C(=O)C(C)(C)C(=O)C(C)(C)C1=O [Flavesone, 1-isobutyroyl-3,3,5,5-tetramethylcyclohexane-2,4,6-trione]",LC50,"[1]; Resistant population, read-out: LC50 (mg a.i./L)",3150 µg/mL
same,LC50,"[1]; susceptible and resistant populations, read-out: LC50",2730 to 3150 µg/mL
same,LC90 (mg a.i./L),[1]; Resistant population,"7,929 mg a.i./L"
same,LC99 (mg a.i./L),[1]; Resistant population,"21,708 mg a.i./L"
same,14 day Adult Mortality No. dead/total,[2]; 5 ppm on wheat,0/50
same,F1 Progeny count No. dead/total,[2]; 5 ppm on wheat,4/930 and 4/999 and 1/866
same,14 day Adult Mortality No. dead/total,[2]; 10 ppm on wheat,6/50 (2×) and 8/50
same,F1 Progeny count No. dead/total,[2]; 10 ppm on wheat,3/446 and 0/444 and 3/487
same,14 day Adult Mortality No. dead/total,[2]; 25 ppm on wheat,50/50
same,F1 Progeny count No. dead/total,[2]; 25 ppm on wheat,0/0
same,14 day Adult Mortality No. dead/total,[2]; 50 ppm on wheat,50/50
same,F1 Progeny count No. dead/total,[2]; 50 ppm on wheat,0/0
same,14 day Adult Mortality No. dead/total,[2]; 100 ppm on wheat,50/50
same,F1 Progeny count No. dead/total,[2]; 100 ppm on wheat,0/0
same,Live adult progeny,"[2]; QRD14, 25 mg/kg, mean ± SE",0.0 ± 0.0
same,Progeny reduction (%),"[2]; QRD14, 25 mg/kg",100%
same,Live adult progeny,"[2]; QRD14, 60 mg/kg, mean ± SE",0.0 ± 0.0
same,Progeny reduction (%),"[2]; QRD14, 60 mg/kg",100%
same,mortality at 25 mg/kg,"[2]; Rhyzopertha dominica, 336 h, QRD14, 25 mg/kg, 2 weeks, mean ± SE, read-out: Adult mortality (%)",98 ± 1.2%
same,mortality at 60 mg/kg,"[2]; Rhyzopertha dominica, 336 h, QRD14, 60 mg/kg, 2 weeks, mean ± SE, read-out: Adult mortality (%)",100%
same,Live adult progeny,"[3]; 25 mg/kg, mean ± SE",572.7 ± 100.9
same,Progeny reduction (%),[3]; 25 mg/kg,6.1%
same,Live adult progeny,"[3]; 60 mg/kg, mean ± SE",430.0 ± 51.0
same,Progeny reduction (%),[3]; 60 mg/kg,29.5%
same,Progeny reduction (%),"[3]; 60 mg/kg, listed as flavesone",29%
same,mortality at 25 mg/kg,"[3]; Sitophilus oryzae, 336 h, 25 mg/kg, 2 weeks, mean ± SE, read-out: Adult mortality (%)",0.7 ± 0.7%
same,mortality at 60 mg/kg,"[3]; Sitophilus oryzae, 336 h, 60 mg/kg, 2 weeks, mean ± SE, read-out: Adult mortality (%)",0.7 ± 0.7%
same,LC50,"[4]; Myzus persicae, foliar, read-out: LC50 (mg a.i./L)",2730 µg/mL
same,LC90 (mg a.i./L),[4],"6,034 mg a.i./L"
same,LC99 (mg a.i./L),[4],"14,330 mg a.i./L"
same,F1 Progeny count No. dead/total,"[5]; Example 5, QRD1440, 25 ppm on wheat, further 6 weeks, replicates A, B, C",0/37 and 0/62 and 0/90
same,14 Day adult mortality No. dead (total),"[5]; Example 5, QRD1440, 25 ppm on wheat, replicates A, B, C",19/50 and 11/50 and 14/50
same,14 day Adult Mortality No. dead/total,[5]; [7],22/50 and 21/50 and 30/50
same,F1 Progeny count No. dead/total,[5]; [7],0/20 (2×) and 0/5
same,14 day Adult Mortality No. dead/total,[5]; [8],47/50 (2×) and 49/50
same,F1 Progeny count No. dead/total,[5]; [8],0/0
same,14 day Adult Mortality No. dead/total,[5]; [9],50/50
same,F1 Progeny count No. dead/total,[5]; [9],0/0
same,14 day Adult Mortality No. dead/total,[5]; [10],50/50
same,F1 Progeny count No. dead/total,[5]; [10],0/0
same,Live adult progeny,"[5]; QRD1440, 25 mg/kg",23.7 ± 9.0
same,Progeny reduction (%),"[5]; QRD1440, 25 mg/kg",88.8%
same,Progeny reduction (%),"[5]; QRD1440, 25 mg/kg, listed as flavesone",88%
same,Live adult progeny,"[5]; QRD1440, 60 mg/kg",0.0 ± 0.0
same,Progeny reduction (%),"[5]; QRD1440, 60 mg/kg",100%
same,mortality at 25 mg/kg,[5]; [11],56.7 ± 4.1%
same,mortality at 60 mg/kg,[5]; [11],100%
same,Live adult progeny,"[6]; 25 mg/kg, mean ± SE",160.3 ± 15.7
same,Progeny reduction (%),[6]; 25 mg/kg,61.2%
same,Adult mortality (%),"[6]; 60 mg/kg, 2 weeks, mean ± SE",14.7 ± 8.7%
same,Live adult progeny,"[6]; 60 mg/kg, mean ± SE",0.0 ± 0.0
same,Progeny reduction (%),[6]; 60 mg/kg,100%
same,mortality at 25 mg/kg,"[6]; Oryzaephilus surinamensis, 336 h, 25 mg/kg, 2 weeks, mean ± SE, read-out: Adult mortality (%)",0.7%
same,mortality at 60 mg/kg,"[6]; Oryzaephilus surinamensis, 336 h, 60 mg/kg, 2 weeks, mean ± SE, read-out: Adult mortality (%)",14%
